Data from patent publication US9321808B2, “Homo- and heterodimeric SMAC mimetic compounds as apoptosis inducers” (BioNTech AG, priority 2012, dated 2016).

B1: mature Smac protein: "second mitochondria-derived activator of caspases"; "N-terminal mitochondrial targeting sequence that is proteolytically removed during maturation to the mature polipeptide" (protein, UniProt Q9NR28 22-239, looked up)
Diablo IAP-binding …: LCVPVVANFKKRCFSELIRPWHKTVTIGFGVTLCAVPIAQKSEPHSLSSEALMRRAVSLVTDSTSTFLSQTTYALIEAITEYTKAVYTLTSLYRQYTSLLGKMNSEEEDEVWQVIIGARAEMTSKHQEYLKLETTWMTAVGLSEMAAEAAYQTGADQASITARNHIQLVKLQVEEVHQLSRKAETKLAEAQIEELRQKTQEEGEERAESEQEAYLRED

Experiments:
human XIAP BIR3 domain = molecular target: T1, human XIAP BIR3 domain (Homo sapiens, UniProt P98170); assay: Fluorescence polarization competitive binding, XIAP BIR3; details: displacement of FITC-SMAC probe from XIAP BIR3-His-tag (60 nM); average of three independent measurements
T1 construct: human XIAP BIR3 domain from residue 241 to 356; made in house; host or cells: Escherichia coli BL21
T1 sequence (P98170 241-356): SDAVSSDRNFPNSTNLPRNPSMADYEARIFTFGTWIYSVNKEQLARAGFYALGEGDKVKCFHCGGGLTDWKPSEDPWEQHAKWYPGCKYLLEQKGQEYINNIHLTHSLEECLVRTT
Procedure: (§1) Data were analyzed using Prism 4.0 software (Graphpad Software).

[1] = molecular target: T2, human XIAP linker-BIR2-BIR3 (Homo sapiens, UniProt P98170); assay: Fluorescence polarization competitive binding, XIAP linker-BIR2-BIR3; details: displacement of SMAC-1F probe (1 nM) from XIAP linker-BIR2-BIR3-His-tag (3 nM); average of three independent measurements
T2 construct: human XIAP from residue 124 to 356 (linker-BIR2-BIR3); made in house; host or cells: Escherichia coli BL21
T2 sequence (P98170 124-356): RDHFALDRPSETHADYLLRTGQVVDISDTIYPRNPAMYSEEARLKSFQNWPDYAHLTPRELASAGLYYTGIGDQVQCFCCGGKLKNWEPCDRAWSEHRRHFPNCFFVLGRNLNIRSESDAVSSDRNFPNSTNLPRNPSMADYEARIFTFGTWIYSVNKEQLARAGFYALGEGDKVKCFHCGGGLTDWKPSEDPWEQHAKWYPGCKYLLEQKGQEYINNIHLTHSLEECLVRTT
Procedure: as §1

cIAP1-BIR3 = molecular target: T3, cIAP1-BIR3 (Homo sapiens, UniProt Q13490); assay: Fluorescence polarization binding, cIAP1 BIR3; details: displacement of fluorescent probe (2 nM) from cIAP1-BIR3 (10 nM); average of three independent measurements; read-out: cIAP1 IC50(av)
T3 construct: 6xHis (C); made in house; host or cells: Escherichia coli BL21(DE3)
T3 sequence (Q13490 251-363): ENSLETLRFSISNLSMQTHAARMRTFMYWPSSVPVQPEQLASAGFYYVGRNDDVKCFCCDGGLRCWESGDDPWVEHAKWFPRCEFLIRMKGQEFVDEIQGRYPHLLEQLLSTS
Procedure: (§2) The plasmids were used to transform Escherichia coli strain BL21(DE3). The recombinant proteins were purified using Ni-NTA (His-trap FFcrude, Ge-Healthcare), followed by gel filtration (Superdex 200, Ge-Healthcare). The recombinant proteins were eluted in 20 mM Tris pH 8.0, 250 mM NaCl and 10 mM DTT. Aliquoted proteins were conserved at −80° C.
(§3) The fluorescently-labelled Smac peptide (AbuRPF-K(5-Fam)-N1-12, final concentration of 2 nM), and increasing concentrations of cIAP1- and cIAP2-BIR3 from 0 to 20 μM, were added to an assay buffer consisting of 100 mM potassium phosphate, pH 7.5, 100 μg/ml bovine γ-globulin, 0.02% sodium azide. […] All experiments were performed in black, flat-bottom 96-well microplates (Greiner bio-one). 4-substituted azabicyclo[5.3.0]alkane Smac-mimetics were evaluated for their ability to displace the fluorescent probe from recombinant protein. […] After 15 minutes mixing on a shaker, and 3 hours incubation at room temperature, fluorescent polarization was measured on the Ultra plate reader (Tecan).

cIAP2-BIR3 = molecular target: T4, cIAP2-BIR3 (Homo sapiens, UniProt Q13489); assay: Fluorescence polarization binding, cIAP2 BIR3; details: displacement of fluorescent probe (2 nM) from cIAP2 (25 nM); average of three independent measurements; read-out: cIAP2 IC50(av)
T4 construct: 6xHis (C); made in house; host or cells: Escherichia coli BL21(DE3)
T4 sequence (Q13489 237-349): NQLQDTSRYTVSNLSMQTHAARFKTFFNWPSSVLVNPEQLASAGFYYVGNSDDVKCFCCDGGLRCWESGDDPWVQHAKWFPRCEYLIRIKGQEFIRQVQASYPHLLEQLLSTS
Procedure: as §2, §3

[2] = system: MDA-MB-231 (breast epithelial adenocarcinoma); assay: Standalone cytotoxicity, MTT assay, MDA-MB-231; type: cell-based, human; details: Homo sapiens, MDA-MB-231, 96 hours treatment, reported as activity range, read-out: MDA-MB-231 IC50 (μM ± standard Deviation)
Procedure: Human cell lines MDA-MB-231 (breast epithelial adenocarcinoma), HL-60 (promieloblast cells) and PC-3 (prostate adenocarcinoma cells) were purchased from Istituto Zooprofilattico di Brescia (www.bs.izs.it). Reagents for cell culture were purchased from Sigma, unless otherwise indicated. Cells were grown on Plastic Petri dishes (Falcon) in RPMI 1640 medium supplemented with 2 mM L-glutamine, Penicillin (100 U/mL)/Streptomicin (100 μg/mL), 10% Fetal Bovine Serum. A sub-cultivation ratio of 1:4 was used. Cells were maintained at 37° C. in an atmosphere of 95% air and 5% CO2.
Cells were seeded in 96-well flat bottom cell culture plates at a density of 5000 cells/well in 100 μL of culture medium. HL-60 cells were immediately stimulated with the indicated compounds for 96 hours in the incubator. MDA-MB-231 and PC-3 cells were allowed to adhere for 24 hours. prior to be exposed to the compounds for 96 hours in the incubator. Cells were exposed to the following concentrations of the compounds: 50 nM, 100 nM, 200 nM, 500 nM, 1 μM, 5 μM, 10 μM, 50 μM and 100 μM. Each point was done in triplicate. The cellular growth inhibitory effect of our compounds was evaluated using the MTT assay (Sigma). After 96 hours of treatment, 10 μL of MTT reagent solution (5 mg of MTT powder/mL diluted in Phosphate Buffer Salt saline solution) were added in each well and allowed to react for 3 hours in the incubator. After 3 hours cells were solubilized in Lysis Buffer (10% SDS/0.1% HCl in water, 100 μL for each well) for 24 hours at 37° C. Finally, the absorbance was measured at 570 nm using a multiplate reader. Absorbance values were collected and IC50 values were determined using GraphPad Prism5 software. The experiments were repeated twice.
After 96 hours of treatment, 10 μl of MTT reagent solution (5 mg of MTT powder/ml diluted in Phosphate Buffer Salt saline solution) were added in each well and allowed to react for 3 hours in the incubator. After 3 hours cells were solubilized in Lysis Buffer (10% SDS/0.1% HCl in water, 100 μl for each well) for 24 hours at 37° C. Finally, the absorbance was measured at 570 nm using a multiplate reader. Absorbance values were collected and IC50/IC80 values were determined using GraphPad Prism5 software.

XIAP = XIAP (Homo sapiens, UniProt P98170); details: technical background; read-out: Kd, binding to XIAP; cited from earlier work
XIAP, sequence (P98170 whole entry): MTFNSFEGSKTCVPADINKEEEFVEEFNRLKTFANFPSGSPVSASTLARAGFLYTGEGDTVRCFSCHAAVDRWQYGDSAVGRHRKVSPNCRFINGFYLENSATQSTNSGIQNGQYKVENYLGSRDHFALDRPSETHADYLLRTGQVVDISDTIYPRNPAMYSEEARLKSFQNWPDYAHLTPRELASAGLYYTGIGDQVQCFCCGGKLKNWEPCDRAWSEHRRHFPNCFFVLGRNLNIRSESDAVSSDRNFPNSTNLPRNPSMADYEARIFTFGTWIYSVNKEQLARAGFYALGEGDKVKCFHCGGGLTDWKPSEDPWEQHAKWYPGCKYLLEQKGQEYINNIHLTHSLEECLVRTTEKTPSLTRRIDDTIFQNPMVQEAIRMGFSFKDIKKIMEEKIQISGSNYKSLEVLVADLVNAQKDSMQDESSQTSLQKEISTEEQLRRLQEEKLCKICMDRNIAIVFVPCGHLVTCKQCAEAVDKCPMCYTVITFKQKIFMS

Molecule | IC50 (human XIAP BIR3 domain) | IC50 [1] | IC50 (cIAP1-BIR3) | IC50 (cIAP2-BIR3) | IC50 [2] | Kd (XIAP)
CC[C@H](NC)C(=O)N[C@@H]1C(=O)N2[C@@H](CC[C@@H]1CNC(=O)CCc1cn(CCOCCOCCOCCNC(=O)[C@@H](NC(=O)[C@@H]3CC[C@@H]4CC[C@H](CO)[C@H](NC(=O)[C@H](CC)NC)C(=O)N43)c3ccccc3)nn1)CC[C@H]2C(=O)NC(c1ccccc1)c1ccccc1 [Compound 34a] | 31.1 nM | 0.11 nM | 3.2 nM | 0.3 nM | 10 to 50 µM | –
B1 | – | – | – | – | – | 420 nM
